# Experimental data from patent US8765705B2, “Oligonucleotides inhibiting cellular migration” (Centre National de la Recherche Scientifique, priority 2009, dated 2014).
# Entries after “also recorded” stand apart in the source; their conditions may differ. d = 2'-deoxy (DNA); r = 2'-OH (RNA)
# Assays:
# C4-2 cells [1] = test: Migration assay, modified Boyden chamber, C4-2 cells; assay type: cell-based, human; conditions: siRNA-transfected cells, towards fresh medium
# Procedure: The cell migration capacity can be measured in vitro using a modified Boyden Chamber. Boyden Chamber consists of two compartments separated by a permeable membrane. Cells are placed in the upper chamber and the chemotactic factors in the lower chamber. Cells migrating through the membrane are counted.
# The migration capacity was measured using a modified Boyden Chamber. Cells (40,000) were seeded in RPMI 1% FBS in the upper part of a cell culture-chamber-insert system separated from the lower chamber by a 8 μm PET membrane (BD Biosciences, Le Pont de Claix, France). RPMI 10% FBS, or conditioned medium was added in the lower compartment. Eighteen hours later, non migrating cells in the upper compartment were scrapped off using a cotton swab. Cells on the lower side of the membrane were fixed with methanol at −20° C. and stained with Hoechst 33258 (Sigma-Aldrich, Saint-Quentin Fallavier, France). Membranes were then excised, mounted on a glass side with Glycergel (DAKO) and cells counted.
# C4-2 cells [2] = test: Intracellular calcium concentration, Fura-2 calcium imaging; assay type: cell-based, human; conditions: 300 μM
# Procedure: Fluorescence imaging was carried out in Hank's balanced salt solution (HBSS) containing 142 mM NaCl, 5.6 mM KCl, 1 mM MgCl2, 2 mM CaCl2, 0.34 mM Na2HPO4, 0.44 mM KH2PO4, 10 mM HEPES, and 5.6 mM glucose. Cytosolic calcium concentration was measured using Fura-2 loaded cells (2 μM) as previously described (Mariot et al., 2002). The intracellular calcium concentration was derived from the ratio of the fluorescence intensities for each of the excitation wavelengths (F340/F380) and from the Grynkiewicz equation (Grynkiewicz et al., 1985).
# TSP1 mRNA = TSP1 mRNA level in C4-2 cells, real-time RT-PCR normalized to cyclophilin A; assay type: cell-based, human
# Procedure: (§1) LNCaP and C4-2 cells were grown in RMPI containing 10% fetal calf serum, PC-3 cells in DMEM containing 10% fetal calf serum. The Hiperfect reagent (Qiagen, Courtaboeuf, France) was used to transfect cells in 24 wells plates with the indicated siRNAs (10 nM) as recommended by the manufacturer. A metabolic activity assay (WST1, Roche Diagnostics, Meylan France) was used to measure cell proliferation. To mimic hypoxia, cells were grown in the presence of 300 μM cobalt chloride for 48 h. For hypoxic conditions, cells were cultured at 37° C. with 5% CO2, 94% N2 and 1% O2 in a hypoxic incubator (Binder GmbH, Tuttligen, France).
# (§2) Total RNA was isolated using TRIzol reagent (Invitrogen, Cergy Pontoise, France). RNA were retrotranscribed using a High capacity cDNA Reverse Transcription Kit (Applied Biosystems, Courtaboeuf, France). cDNA was quantified by real time PCR using the Power SYBR® Green PCR Master Mix (Applied Biosystems, Courtaboeuf, France). Human Cyclophilin A was used as an internal control. The sequences of the PCR primers are indicated in the supplementary table 2.
# TSP1 [3] = test: TSP1 expression in PC3 cells exposed to CoCl2; assay type: cell-based, human
# Procedure: FIG. 4G represents the induction of VEGF (grey) and TSP1 (black) mRNA levels normalized to cyclophilin A levels in PC3 cells grown for the indicated periods in cobalt chloride as compared to the respective mRNA levels in control medium at the same time point.
# FIG. 4H represents TSP1 immunodetection in PC3 cells grown for 48 h in control conditions (N) or in the presence of 300 μM CoCl2 to mimic hypoxia (H).
# as §1
# TRPV3 mRNA = TRPV3 mRNA level in C4-2 cells, real-time RT-PCR; assay type: cell-based, human; conditions: 48 h, 300 μM
# Procedure: as §1, §2
# C4-2 cells [4] = test: Apoptosis, enzymatic activity of caspases 3 and 7; assay type: cell-based, human; conditions: for effect on apoptosis: C4-2 cells transfected with siRNA; for enzymatic activity of caspases 3 and 7 versus control: C4-2 cells, 48 h after transfection
# Procedure: FIG. 1F represents the enzymatic activity of caspases 3 and 7 measured 48 h after transfection of C4-2 cells with the TSP1a- or TSP1b-siRNA.
# TSP1 [5] = test: TSP1 protein expression in C4-2 cells (indirect immunofluorescence); assay type: cell-based, human; conditions: for TSP1 protein level: C4-2 cells transfected with siRNA (10 nM), 48 h after transfection
# Procedure: FIG. […]
# as §1
# C4-2 cells [6] = test: Cell proliferation, metabolic activity assay (WST1); assay type: cell-based, human; conditions: C4-2 cells transfected with siRNA
# Procedure: as §1
# TSP1 [7] = test: TSP1 secretion in the culture medium of C4-2 cells (western blotting); assay type: cell-based, human; conditions: 2 h treatment
# Procedure: FIG. 2B represents TSP1 secretion in the cell culture medium by C4-2 cells treated for 2 h by vehicle (left) or thapsigargin (1 μM) (right). The secreted TSP1 is measured by western blotting in the cell culture medium. FIG. 2D represents TSP1 secretion in the cell culture medium by C4-2 cells treated for 2 h by vehicle or camphor at the indicated doses. The secreted TSP1 is measured by western blotting in the cell culture medium. FIG. 3D represents Western blot detection of TSP1 in the culture medium of C4-2 cells transfected with cont- or TSP1-siRNA 48 h after transfection.
# [8] = system: TLR3, TLR7, IL6, IL12b, IFNβ, IFNγ, and IP10; test: Induction of interferon or inflammatory cytokine genes in the spleen of nude mice, real time RT-PCR; conditions: five hours after one i.p. injection of 4 mg/kg in PBS
# Procedure: The mRNA level of the indicated genes, normalized to cyclophilin A, was quantified by real time RT-PCR in the spleen.
# All the injections were carried out with a dose of 4 mg/kg siRNA diluted in PBS. Five hours after injection, mRNAs coding several genes involved in innate immune response or in inflammation were quantified by quantitative real time RT-PCT.
# [9] = C4-2 cells transfected with siRNA (10 nM), 2 days after transfection
compound,measurement,setting,value
"CD36: siRNA targeting CD36: UACAGACAGUUUUGGAUCUdTdT / AGAUCCAAAACUGUCUGUAdTdT (chain 1 UACAGACAGUUUUGGAUCUTT; chain 2 AGAUCCAAAACUGUCUGUATT; sugars from the 5' end r19 d2, backbone not given here)",migration of C4-2 cells,C4-2 cells [1],strongly reduced
[Cl][Co][Cl] [cobalt chloride],"intracellular calcium concentration, resting level",C4-2 cells [2]; 48 h,increased over two fold
same,"intracellular calcium concentration, resting level",C4-2 cells [2]; after 30 min,not modified
same,TSP1 mRNA level,"TSP1 mRNA; C4-2 cells, 48 h, 300 μM",strongly induced
same,TSP1 expression at the mRNA level,TSP1 [3],induced
same,TSP1 expression at the protein level,"TSP1 [3]; 48 h, 300 μM",induced
same,TRPV3 mRNA level,TRPV3 mRNA,strongly induced
"β3: siRNA targeting β3 integrin: GGAGAAUCUGCUGAAGGAUdTdT / AUCCUUCAGCAGAUUCUCCdTdT (chain 1 GGAGAAUCUGCUGAAGGAUTT; chain 2 AUCCUUCAGCAGAUUCUCCTT; sugars from the 5' end r19 d2, backbone not given here)",migration of C4-2 cells,C4-2 cells [1],strongly reduced
"TSP1b-siRNA: Duplex UACCCGAGACGAUUGUAUGdTdT / CAUACAAUCGUCUCGGGUAdTdT targeting specifically the human TSP1 mRNA (sense UACCCGAGACGAUUGUAUGTT; antisense CAUACAAUCGUCUCGGGUATT; sugars from the 5' end r19 d2, backbone not given here)",TSP1 mRNA level,TSP1 mRNA; [9],significantly reduces
same,effect on apoptosis,C4-2 cells [4],no effect
same,enzymatic activity of caspases 3 and 7 versus control,C4-2 cells [4],not statistically different
same,TSP1 protein level,TSP1 [5],significantly reduces
same,effect on cell proliferation,C4-2 cells [6],no effect; also recorded: without affecting
"C/C=C(/C)C(=O)O[C@H]1C(C)=C2[C@H]([C@@H]1OC(=O)CCCCCCC)[C@@](C)(OC(C)=O)C[C@H](OC(=O)CCC)[C@@]1(O)[C@H]2OC(=O)[C@@]1(C)O [thapsigargin, reference compound]",TSP1 in the cytosol,"TSP1 [5]; C4-2 cells, 2 h treatment, 1 μM",rapid depletion
"TRPV2: siRNA targeting TRPV2: UAAGAGUCAACCUCAACUAdTdT / UAGUUGAGGUUGACUCUUAdTdT (chain 1 UAAGAGUCAACCUCAACUATT; chain 2 UAGUUGAGGUUGACUCUUATT; sugars from the 5' end r19 d2, backbone not given here)",TSP1 mRNA level,TSP1 mRNA; [9],reduced
"CC12CCC(CC1=O)C2(C)C (stereo not drawn) [camphor, reference compound]",TSP1 mRNA level,"TSP1 mRNA; C4-2 cells, 6 h treatment",dose dependent increase
same,TSP1 secretion into the culture medium,TSP1 [7],stimulated
Poly (I:C) [reference compound],"induction of TLR3, TLR7, IL6, IL12b, IFNβ, IFNγ, and IP10 mRNA",[8],significant increase
"TRPV6: siRNA targeting TRPV6: GGAAGACAGGCAAGAUCUCdTdT / GAGAUCUUGCCUGUCUUCCdTdT (chain 1 GGAAGACAGGCAAGAUCUCTT; chain 2 GAGAUCUUGCCUGUCUUCCTT; sugars from the 5' end r19 d2, backbone not given here)",TSP1 mRNA level,TSP1 mRNA; [9],reduced
"TSP1a-siRNA: Duplex CCUUGACAACAACGUGGUGdTdT / CACCACGUUGUUGUCAAGGdTdT targeting TSP1 mRNA, sequence conserved between human and mouse (sense CCUUGACAACAACGUGGUGTT; antisense CACCACGUUGUUGUCAAGGTT; sugars from the 5' end r19 d2, backbone not given here)",TSP1 mRNA level,TSP1 mRNA; [9],significantly reduces
same,effect on apoptosis,C4-2 cells [4],no effect
same,enzymatic activity of caspases 3 and 7 versus control,C4-2 cells [4],not statistically different
same,TSP1 protein level,TSP1 [5],significantly reduces
same,effect on cell proliferation,C4-2 cells [6],no effect; also recorded: without affecting
